Results reported in patent publication US9062041B2 (Bayer Intellectual Property GmbH, priority 2011, dated 2015).
pIC50: −log10 of the molar value.

Assays:
Assay type in all cases: cell-based
[1] = target: EP4 subtype of the human PGE2 receptor (Homo sapiens, UniProt P35408); assay: cAMP antagonism test on the human EP4 receptor (HTRF cAMP detection); settings: selectivity towards hEP4, IC50 measured by cAMP antagonism test
Source text: 2. Detection of Antagonism to the Human Prostaglandin E2 (Subtype EP4) Receptor Signal
(§1) The binding of PGE2 to the EP4 subtype of the human PGE2 receptor induces the activation of membrane-located adenylate cyclases and leads to the formation of cAMP. In the presence of the phosphodiesterase inhibitor IBMX, the cAMP accumulated owing to this stimulation and released by cell lysis is used in a competitive detection method. In this test, the cAMP present in the lysate competes with a fluorescence-labelled cAMP (cAMP-d2) for binding to an Eu cryptate-labelled anti-cAMP antibody.
(§2) In the absence of cellular cAMP a maximal signal is produced, which is attributable to the binding of this cAMP-d2 molecule to the antibody. After excitation of the […] at 337 nm, there is a fluorescence resonance energy transfer (FRET) to the Eu cryptate molecules of the anti-cAMP antibody (labelled therewith), followed by a long-lasting emission signal at 665 nm (and at […]). Both signals are measured in a suitable measurement instrument with a time delay, i.e. after decay of the background fluorescence. Any increase in the low FRET signal caused by prostaglandin E2 administration (measured as well ratio change=emission665 nm/emission620 nm*10000) indicates the action of antagonists.
2.2.1. Test for Antagonism (Data Per Well of a 384-Well Plate):
(§3) To a test plate with the substance solutions already added (0.05 μl; 100% DMSO, concentration range from 0.8 nM-16.5 μM) were added 4 μl of a cAMP-d2/cell suspension (312500 cells/ml). After a 20-minute preincubation at room temperature (RT), 2 μl of a 3×PGE2 solution (0.3 nM, in PBS-IBMX) were added and incubated in the presence of the agonist for a further 60 mins at RT (volume: ˜6 μl). Next the reaction was stopped by addition of 2 μl of lysis buffer and incubated for a further 20 mins at RT before the actual measurement (volume: ˜8 μl).

[2] = target: EP2 subtype of the human PGE2 receptor (Homo sapiens, UniProt P43116); assay: cAMP antagonism test on the human EP2 receptor (HTRF cAMP detection); settings: hEP2 receptor, read-out: Antagonism hEP2 IC50
Chain of EP2 subtype of the human PGE2 receptor (P43116 whole entry): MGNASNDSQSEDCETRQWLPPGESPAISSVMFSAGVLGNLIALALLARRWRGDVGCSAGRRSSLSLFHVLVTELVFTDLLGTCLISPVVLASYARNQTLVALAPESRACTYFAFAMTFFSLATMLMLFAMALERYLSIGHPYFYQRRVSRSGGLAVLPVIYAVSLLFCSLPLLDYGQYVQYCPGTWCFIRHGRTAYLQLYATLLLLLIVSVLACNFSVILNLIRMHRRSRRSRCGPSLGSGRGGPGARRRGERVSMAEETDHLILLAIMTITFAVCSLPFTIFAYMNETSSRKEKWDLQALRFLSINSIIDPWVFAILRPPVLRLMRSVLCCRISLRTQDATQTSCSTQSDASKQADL
Source text: 1. Detection of Antagonism to the Human Prostaglandin E2 (Subtype EP2) Receptor Signal
as §1, with “EP2” for “EP4”
as §2, with “cellular cAMP,” for “cellular cAMP”
1.2.1. Test for Antagonism (Data Per Well of a 384-Well Plate):
as §3, with “(625000” for “(312500”, “(1.5” for “(0.3”

[3] = target: T1, human PGD receptor (Homo sapiens, UniProt Q13258); assay: cAMP antagonism test on the human prostaglandin D receptor (HTRF cAMP detection); settings: selectivity towards hDP, IC50 measured by cAMP antagonism test
T1 sequence (Q13258 1-359): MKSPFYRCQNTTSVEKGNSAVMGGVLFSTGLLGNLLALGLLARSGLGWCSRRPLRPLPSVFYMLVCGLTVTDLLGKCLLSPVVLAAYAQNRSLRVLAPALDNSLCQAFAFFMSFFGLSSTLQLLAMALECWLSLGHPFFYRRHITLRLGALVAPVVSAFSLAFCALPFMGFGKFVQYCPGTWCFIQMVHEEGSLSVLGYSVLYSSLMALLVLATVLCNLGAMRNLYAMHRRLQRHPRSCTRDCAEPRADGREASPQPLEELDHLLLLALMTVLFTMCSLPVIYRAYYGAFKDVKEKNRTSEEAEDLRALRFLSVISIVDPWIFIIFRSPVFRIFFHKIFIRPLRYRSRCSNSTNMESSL
Source text: 3. Detection of Antagonism to the Human Prostaglandin D Receptor Signal
as §1, with “of prostaglandin D2” for “of PGE2”, “the” for “the EP4 subtype of the”, “human PGD” for “human PGE2”
as §2, with “cellular cAMP,” for “cellular cAMP”
3.2.1. Test for Antagonism (Data Per Well of a 384-Well Plate):
as §3, with “(625000” for “(312500”, “3×PGD2” for “3×PGE2”, “(6” for “(0.3”, “30” for “60”

Chain of EP4 subtype of the human PGE2 receptor (P35408 whole entry): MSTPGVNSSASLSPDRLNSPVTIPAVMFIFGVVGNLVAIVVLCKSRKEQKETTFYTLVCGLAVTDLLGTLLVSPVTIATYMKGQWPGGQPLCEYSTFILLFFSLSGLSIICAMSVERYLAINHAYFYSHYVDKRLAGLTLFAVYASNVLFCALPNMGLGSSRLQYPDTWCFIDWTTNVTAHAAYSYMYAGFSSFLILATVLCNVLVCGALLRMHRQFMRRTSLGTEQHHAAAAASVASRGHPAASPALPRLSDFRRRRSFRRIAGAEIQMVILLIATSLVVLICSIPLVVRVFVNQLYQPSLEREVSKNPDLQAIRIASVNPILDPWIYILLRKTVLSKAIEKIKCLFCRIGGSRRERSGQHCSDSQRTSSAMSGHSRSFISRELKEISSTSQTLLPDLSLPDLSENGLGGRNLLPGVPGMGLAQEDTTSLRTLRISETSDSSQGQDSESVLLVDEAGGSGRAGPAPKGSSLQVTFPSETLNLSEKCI

| Structure (SMILES) | Selectivity hEP2/hEP4 [1] | pIC50 [2] | Selectivity hEP2/hDP [3] |
| --- | --- | --- | --- |
| COCCNC(=O)c1ccc2nn(CC3CCN(C(=O)c4ccc(Oc5ccc(C(C)(C)C)cc5)cc4)CC3)cc2c1C [Example 16, 2-({1-[4-(4-tert-butylphenoxy)-benzoyl]piperidin-4-yl}methyl)-N-(2-methoxyethyl)-4-methyl-2H-indazol-5-carboxamide] | xxx (xxx > 100) | 8.23 | xxx (xxx > 100) |
| COC(C)CNC(=O)c1ccc2nn(CC3CN(C(=O)c4ccc(Cl)cc4)C3)cc2c1C (single isomer, unassigned) [Example 140, (S or R)-2-{[1-(4-chlorobenzoyl)azetidin-3-yl]methyl}-N-(2-methoxypropyl)-4-methyl-2H-indazol-5-carboxamide] | xxx (xxx > 100) | 7.26 | xxx (xxx > 100) |
| COCCNC(=O)c1ccc2nn(CC3CCN(C(=O)c4ncc(-c5ccccc5)o4)CC3)cc2c1C [Example 354, N-(2-methoxyethyl)-4-methyl-2-({1-[(5-phenyloxazol-2-yl)carbonyl]piperidin-4-yl}methyl)-2H-indazol-5-carboxamide] | xxx (xxx > 100) | 8.23 | xxx (xxx > 100) |
| COCCNC(=O)c1ccc2nn(CC3CCN(C(=O)c4ccc(Oc5ccc(C#N)cc5)cc4)CC3)cc2c1C [Example 330, 2-({1-[4-(4-cyanophenoxy)benzoyl]piperidin-4-yl}methyl)-N-(2-methoxyethyl)-4-methyl-2H-indazol-5-carboxamide] | xxx (xxx > 100) | 8.02 | xxx (xxx > 100) |
| COCCNC(=O)c1ccc2nn(CC3CCN(C(=O)c4ccc(Oc5ccc(F)cc5)cc4)CC3)cc2c1OCC(F)(F)F [Example 233, 2-({1-[4-(4-fluorophenoxy)benzoyl]piperidin-4-yl}methyl)-N-(2-methoxyethyl)-4-(2,2,2-trifluoroethoxy)-2H-indazol-5-carboxamide] | xxx (xxx > 100) | 7.40 | xxx (xxx > 100) |
| Cc1c(C(=O)NCC(F)(F)F)ccc2nn(CC3CCN(C(=O)c4ccc(SC(F)(F)F)cc4)CC3)cc12 [Example 288, 4-methyl-N-(2,2,2-trifluoroethyl)-2-[(1-{4-[(trifluoromethyl)sulphanyl]benzoyl}-piperidin-4-yl)methyl]-2H-indazol-5-carboxamide] | xxx (xxx > 100) | 7.40 | xxx (xxx > 100) |
| COCCNC(=O)c1ccc2nn(CC3CCN(C(=O)c4ccc(-c5ccc(C(F)(F)F)cc5)cc4)CC3)cc2c1C [Example 360, N-(2-methoxyethyl)-4-methyl-2-[(1-{[4′-(trifluoromethyl)biphenyl-4-yl]-carbonyl}piperidin-4-yl)methyl]-2H-indazol-5-carboxamide] | xxx (xxx > 100) | 8.20 | xxx (xxx > 100) |
| COCCNC(=O)c1ccc2nn(CC3CCN(C(=O)c4ccc(C5CCCCC5)cc4)CC3)cc2c1C [Example 335, 2-{[1-(4-cyclohexylbenzoyl)piperidin-4-yl]methyl}-N-(2-methoxyethyl)-4-methyl-2H-indazol-5-carboxamide] | xxx (xxx > 100) | 8.29 | xxx (xxx > 100) |
| COCCNC(=O)c1ccc2nn(CC3CCN(C(=O)c4ccc(Cl)cc4F)CC3)cc2c1OC [Example 271, 2-{[1-(4-chloro-2-fluorobenzoyl)piperidin-4-yl]methyl}-4-methoxy-N-(2-methoxyethyl)-2H-indazol-5-carboxamide] | xxx (xxx > 100) | 7.47 | xxx (xxx > 100) |
| COCCNC(=O)c1ccc2nn(CC3CN(C(=O)c4ccc(Cl)cc4)C3)cc2c1OC [Example 214, 2-{[1-(4-chlorobenzoyl)azetidin-3-yl]methyl}-4-methoxy-N-(2-methoxyethyl)-2H-indazol-5-carboxamide] | xxx (xxx > 100) | 7.19 | xxx (xxx > 100) |
| Cc1c(C(=O)NCC(F)(F)F)ccc2nn(CC3CCN(C(=O)c4nc5ccccc5o4)CC3)cc12 [Example 299, 2-{[1-(benzoxazol-2-ylcarbonyl)piperidin-4-yl]methyl}-4-methyl-N-(2,2,2-trifluoroethyl)-2H-indazol-5-carboxamide] | xx (xx: 10-100) | 6.27 | xx (xx: 10-100) |
| Cc1c(C(=O)NCCS(C)(=O)=O)ccc2nn(CC3CCN(C(=O)c4ccc(Oc5ccc(C(F)(F)F)cn5)cc4)CC3)cc12 [Example 396, N-(2-mesylethyl)-4-methyl-2-{[1-(4-{[5-(trifluoromethyl)pyridin-2-yl]oxy}-benzoyl)piperidin-4-yl]methyl}-2H-indazol-5-carboxamide] | xxx (xxx > 100) | 7.74 | xxx (xxx > 100) |
| Cc1c(C(=O)NCCOC(C)(C)C)ccc2nn(CC3CCN(C(=O)c4ccc(Oc5ccc(F)cc5)cc4)CC3)cc12 [Example 112, N-(2-tert-butoxyethyl)-2-({1-[4-(4-fluoro-phenoxy)benzoyl]-piperidin-4-yl}methyl)-4-methyl-2H-indazol-5-carboxamide] | xxx (xxx > 100) | 7.92 | xxx (xxx > 100) |
| COCCNC(=O)c1ccc2nn(CC3CCN(C(=O)c4ccc(Oc5ccccn5)cc4)CC3)cc2c1C [Example 346, N-(2-methoxyethyl)-4-methyl-2-({1-[4-(2-pyridyloxy)benzoyl]piperidin-4-yl}-methyl)-2H-indazol-5-carboxamide] | xxx (xxx > 100) | 7.83 | xxx (xxx > 100) |
